Measurements from patent US4578382A, “4-acylamino-1-azaadamantanes, and compositions for use thereof in medicine” (Etablissements Nativelle S.A., priority 1981, dated 1986).
Read-outs that look alike come from different tables or passages of the source.

How the values were obtained:
[1] = system: anoxic ventricular fibrillation; test: Lawson test (cardiac antifibrillatory power, chloroform); type: in vivo; details: ip; mouse, intraperitoneal, 10 minutes before chloroform
Method: The Lawson test is a test for the study of the cardiac antifibrillatory power of the derivatives. The mice (20 per group) received an intraperitoneal injection of the derivative 10 minutes before being placed in a chloroform-saturated atmosphere. Upon respiratory arrest, the thorax was opened (5 to 10 seconds) and whether or not the heart was in ventricular fibrillation was checked. The efficacy dose 50 (ED 50) of the derivative being studied is the dose which protects half the mice against anoxic ventricular fibrillation.

[2] = system: ventricular arrhythmias with adrenalin; test: Test with adrenalin after experimental infarct; type: in vivo, dog
Source text: (§1) Narcisse et al, Ann. Pharma. Fr., 37, 325-330 (1979), in the rat by the aconitine intoxication test of S. Witchitz et al, Coeur Med. Int., X(2), 281-286, (1971) and in the dog by the Harris test described in Circulation, 1, 1318, (1950) and by the test with adrenalin after experimental infarct of I. J. Steffe et al, J. Pharmacol. Exp. Ther., 214, 50-57 (1980).
2 to 5 days after an experimental infarct, the effects of discontinuous injections (in intravenous bolus of […] of basic adrenalin) of adrenalin were observed on the electrocardioagram of the conscious dog.
During a first phase (control) of the experiment, three successive injections of adrenalin were given and, in the 2 minutes following each injection, the frequency of the ventricular extrasystoles was measured. In this manner, by increasing the dose of adrenalin as necessary, it was possible to determine the dose which caused the appearance of ventricular extrasystoles at a higher frequency than or equal to half the total number of ventricular systoles.
After injection of the derivative to be tested, the same dose of adrenalin was reinjected after 5 minutes, then 30 minutes, 60 minutes, 90 minutes, etc., and its effects were compared to those observed during the control period.
The results therein are expressed as a percentage of extrasystoles (on the total number of systoles) measured during the 2 minutes following the injection of adrenalin before and after the administration of the derivative to be tested.

[3] = Lawson test (cardiac antifibrillatory power, chloroform); details: in vivo, ip; mouse, intraperitoneal; read-out: Maximum Dose Tolerated
[4] = Acute toxicity in the mouse (LD 50, Litchfield and Wilcoxon); details: in vivo
Method: The acute toxicity of the derivatives of the invention were studied by intraperitoneal administration (I.P.) on the mouse (10 animals, 5 males and 5 females per dose) and calculation of the lethal dose 50 (LD 50) in accordance with the method of Litchfield and Wilcoxon (J. Pharmacol. 96, 99-113 (1949)).
In certain cases (derivatives of Examples 4, 6, 9), the LD 50 was also calculated after oral administration (P.O.) of the derivatives.

anesthetized dog [5] = test: Hemodynamic (cardiovascular) tolerance in the anesthetized dog; type: in vivo; details: i.v., vs control period
Method: The hemodynamic tolerance of the derivatives of the invention was studied on dogs anesthesized with sodium pentobarbital. Endocavitary pressures were measured by means of catheters connected to Statham sensors while external recording of the electrocardiogram (E.C.G.) provided the measurement of cardiac frequency. Cardiac flow was measured by means of an electromagnetic sensor placed on the beginning of the aorta. The total peripheral resistances R were calculated from the value of the average aortic pressure (P) and the cardiac flow (Q) in accordance with the formula R=P/Q.
After measurement of the parameters during a control period, the derivatives were injected intravenously in cumulative doses (30 minute interval between doses). The variations of the parameters in relation to the control period were measured within 20 and 30 minutes after each injection and are expressed as a percentage of variation in relation to the control.
Table 2 summarizes the variations in hemodynamic parameters observed between the first and last injections.

anesthetized dog [6] = test: Electrophysiological studies on the anesthetized dog; type: in vivo; details: i.v., 2 evaluations
Method: This study was carried out on dogs anesthetized with pentobarbital, with a closed thorax, by means of bipolar catheter-electrodes introduced into the cardiac cavities by transcutaneous venous and arterial means. The surface electrocardiogram (standard derivation D2) is recorded permanently.
By means of a programmable JANSEN (R) stimulator, the following parameters may be measured:
spontaneous cardiac frequency (FC);
sinus recuperation time (SRTc) after auricular stimulation imposed at 160 b/mn for 1 mn;
intracardiac conduction times (auriculohisien at a constant frequency, His-Purkinje, intraventricular);
the effective and functional refractory periods measured at an imposed constant frequency, with the extrastimulus method.
During the electrophysiological study, the derivatives were injected intravenously for 2 minutes for each dose and at 30 minute intervals between each dose. The doses are expressed as a cumulative value and as a base term.
The measurement of the various parameters was carried out before the injection of the first dose (control period) and from 10 to 28 minutes after the injection of each dose of the substance. The results are expressed as a percentage of variation in relation to the control period.

[7] = system: ventricular arrhythmias and death induced by the aconitine; test: Aconitine intoxication test in the anesthetized rat; type: in vivo; details: i.v., vs untreated control
Source text: as §1
The anesthetized rat was intoxicated with an intravenous perfusion of aconitine while its electrocardiogram (ECG) was permanently recorded. During the perfusion at constant rate, the time necessary for the appearance of ventricular arrhythmias, successive extrasystoles (ESV), then stable ventricular tachycardium (TV) and the time within which the animal died were measured.
The animals were divided into a control group (untreated) and treated groups (different doses). The results are expressed as a percentage of prolonging the time of appearance of the arrhythmias and of death of the treated groups in reaction to the control group.
The results obtained are shown in Table 4 below and express the percentage of prolongation of the time of appearance of ventricular arrhythmias (ventricular extrasystoles and ventricular tachycardiums), and of the death, induced by the aconitine after an intravenous injection (I.V.) of several derivatives of the invention, in relation to a group of untreated control animals.

ventricular arrhythmias = test: Harris test (ventricular arrhythmias after experimental infarct); type: in vivo, dog
Source text: as §1
The ligature of the anterior interventricular artery in the anesthetized dog causes the appearance of an experimental infarct of the myocardium followed by considerable ventricular arrhythmias.
The dogs were studied 24 to 48 hours after the intervention. The electrocardiogram (ECG) was then recorded permanently, the conscious dog being at rest in an isolated laboratory. After a period of 3 hours of ECG recording, allowing for the measurement of the cardiac frequency of the dog the frequency of ventricular extrasystoles (ESV)--pre-treatment control period--the derivative to be studied was injected intravenously for 1 minute. Continuous recording of the ECG enabled, in the hours following the injection, measurement of the frequency of the ESV/mn for successive periods from 30 to 60 min. The number of ESV per minute measured for 3 hours during the control period varied from 66 to 172/min with an average of 111/min. […] The length of this antiarrhythmic effect observed varied depending on the derivatives from 1 hour to more than 5 hours. For example, the percentage decrease of the ESV/min in the case of the derivative of Example 11 (cumulative dose 14 mg/kg) was 96% (0 to 1/2 hour), 50% (1/2 to 1 hour) and 68% (1 to 2 hour). The corresponding values for the derivative of Example 4 (3 mg/kg) were 44%, 55% and 45%, respectively.

[8] = 1 mg/kg, control period 48% of ESV
[9] = ip, intraperitoneal, read-out: LD 50 I.P.
[10] = 14.3 mg/kg, control period 74% of ESV
[11] = cumulative doses 0.3 to 10 mg/kg

CC1(NC(=O)Cc2ccccc2)C2CC3CC1CN(C2)C3(C)C (centres unmarked) [Example 9, N-phenylacetyl-4-amino-4,8,8-trimethyl-1-azaadamantane]
ED50 [1]: 90 mg/kg | ESV Percentage at 5 min [2, 8]: 11% | ESV Percentage at 30 min [2, 8]: 27% | ESV Percentage at 60 min [2, 8]: 45% | MTD [3]: 200 mg/kg | LD50 [4, 9]: 430 mg/kg | LD50 ([4]; oral, read-out: LD 50 P.O.): 2400 mg/kg | Cardiac Flow, percentage of variation (anesthetized dog [5]; cumulative doses 1 to 10 mg/kg): 0 to -30% | Cardiac Frequency, percentage of variation (anesthetized dog [5]; cumulative doses 1 to 10 mg/kg): 0 to -12% | Total Peripheral Resistances, percentage of variation (anesthetized dog [5]; cumulative doses 1 to 10 mg/kg): -5 to +15% | dp/dt/p Left Ventricular, percentage of variation (anesthetized dog [5]; cumulative doses 1 to 10 mg/kg): 0 to -33% | F.C. (cardiac frequency), variation (anesthetized dog [6]; doses 1 to 19 mg/kg): 0% | HV (time of His-Purkinje conduction), variation (anesthetized dog [6]; doses 1 to 19 mg/kg): +18 to +100% | PREA (effective auricular refractory period), variation (anesthetized dog [6]; doses 1 to 19 mg/kg): +6 to +45% | PREV (effective ventricular refractory period), variation (anesthetized dog [6]; doses 1 to 19 mg/kg): +2 to +15% | QRS (time of intraventricular conduction), variation (anesthetized dog [6]; doses 1 to 19 mg/kg): 0 to +23% | St-H (time of auriculohisien conduction), variation (anesthetized dog [6]; doses 1 to 19 mg/kg): 0 to +30% | Prolongation of time of appearance of ventricular extrasystoles (ESV) ([7]; 10 mg/kg): +31% | Prolongation of time of appearance of ventricular tachycardium (TV) ([7]; 10 mg/kg): +79% | Prolongation of time to death ([7]; 10 mg/kg): +44% | Prolongation of time of appearance of ventricular extrasystoles (ESV) ([7]; 20 mg/kg): +100% | Prolongation of time of appearance of ventricular tachycardium (TV) ([7]; 20 mg/kg): +79% | Prolongation of time to death ([7]; 20 mg/kg): +84% | Prolongation of time of appearance of ventricular extrasystoles (ESV) ([7]; 40 mg/kg): +171% | Prolongation of time of appearance of ventricular tachycardium (TV) ([7]; 40 mg/kg): +147% | Prolongation of time to death ([7]; 40 mg/kg): +88%

CC1(NC(=O)CCc2ccccc2)C2CC3CC1CN(C2)C3(C)C (centres unmarked) [Example 4, N-(3-phenylpropionyl)-4-amino-4,8,8-trimethyl-1-azaadamantane]
ED50 [1]: 72 mg/kg | ESV Percentage at 5 min [2, 10]: 36% | ESV Percentage at 30 min [2, 10]: 59% | ESV Percentage at 60 min [2, 10]: 60% | MTD [3]: 200 mg/kg | LD50 [4, 9]: 375 mg/kg | LD50 ([4]; oral, read-out: LD 50 P.O.): 2400 mg/kg | Percentage decrease of the ESV/min (ventricular arrhythmias; 3 mg/kg i.v., 0 to 1/2 hour): 44% | Percentage decrease of the ESV/min (ventricular arrhythmias; 3 mg/kg i.v., 1/2 to 1 hour): 55% | Percentage decrease of the ESV/min (ventricular arrhythmias; 3 mg/kg i.v., 1 to 2 hour): 45% | Cardiac Flow, percentage of variation (anesthetized dog [5]; [11]): -7 to -23% | Cardiac Frequency, percentage of variation (anesthetized dog [5]; [11]): -7% | Systolic Arterial Pressure, percentage of variation (anesthetized dog [5]; [11]): -7 to -28% | Total Peripheral Resistances, percentage of variation (anesthetized dog [5]; [11]): 0 to -13% | dp/dt/p Left Ventricular, percentage of variation (anesthetized dog [5]; [11]): 0 to -40% | F.C. (cardiac frequency), variation (anesthetized dog [6]; doses 0.3 to 14.3 mg/kg): 0% | HV (time of His-Purkinje conduction), variation (anesthetized dog [6]; doses 0.3 to 14.3 mg/kg): 0 to +80% | PREA (effective auricular refractory period), variation (anesthetized dog [6]; doses 0.3 to 14.3 mg/kg): +10 to +35% | PREV (effective ventricular refractory period), variation (anesthetized dog [6]; doses 0.3 to 14.3 mg/kg): 0 to +10% | QRS (time of intraventricular conduction), variation (anesthetized dog [6]; doses 0.3 to 14.3 mg/kg): 0 to +15% | St-H (time of auriculohisien conduction), variation (anesthetized dog [6]; doses 0.3 to 14.3 mg/kg): +7 to +10% | Prolongation of time of appearance of ventricular extrasystoles (ESV) ([7]; 5 mg/kg): +37% | Prolongation of time of appearance of ventricular tachycardium (TV) ([7]; 5 mg/kg): +50% | Prolongation of time to death ([7]; 5 mg/kg): +25% | Prolongation of time of appearance of ventricular extrasystoles (ESV) ([7]; 10 mg/kg): +60% | Prolongation of time of appearance of ventricular tachycardium (TV) ([7]; 10 mg/kg): +86% | Prolongation of time to death ([7]; 10 mg/kg): +39% | Prolongation of time of appearance of ventricular extrasystoles (ESV) ([7]; 20 mg/kg): +103% | Prolongation of time of appearance of ventricular tachycardium (TV) ([7]; 20 mg/kg): +89% | Prolongation of time to death ([7]; 20 mg/kg): +65%

CC1(NC(=O)CCCc2ccccc2)C2CC3CC1CN(C2)C3(C)C (centres unmarked) [Example 11, N-(4-phenylbutyryl)-4-amino-4,8,8-trimethyl-1-azaadamantane]
Percentage decrease of the ESV/min (ventricular arrhythmias; cumulative dose 14 mg/kg i.v., 0 to 1/2 hour): 96% | Percentage decrease of the ESV/min (ventricular arrhythmias; cumulative dose 14 mg/kg i.v., 1/2 to 1 hour): 50% | Percentage decrease of the ESV/min (ventricular arrhythmias; cumulative dose 14 mg/kg i.v., 1 to 2 hour): 68%
